Reference: the supplement of paper PMC11061612

Legend:
AZD0156 = compound: CN(C)CCCOc1ccc(-c2ccc3ncc4c(c3c2)n(C2CCOCC2)c(=O)n4C)cn1 [AZD0156]
How it was run: (§1)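 Cancer cell lines were seeded into 1536-well plates in 7.5 μl medium (DMEM/F12 or RPMI, 10% FBS), held 24 hours at 37°C and 5% CO2, and dosed for 72 hours with final DMSO typically 0.2%. Luminescence from CellTiter-Glo 2.0, scaled between blank-well and DMSO-well means, served as viability. The single-agent IC50 was obtained from dose-response fits with a non-linear mixed effects model, each fit being a two-parameter logistic curve.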

Savolitinib = compound: C[C@@H](c1ccc2nccn2c1)n1nnc2ncc(-c3cnn(C)c3)nc21 [Savolitinib]; settings: max 1 µM
How it was run: as §1

Gemcitabine = compound: Nc1ccn([C@@H]2O[C@H](CO)[C@@H](O)C2(F)F)c(=O)n1 [Gemcitabine]; settings: max 0.3 µM
How it was run: as §1

Etoposide = compound: COc1cc([C@@H]2c3cc4c(cc3[C@@H](O[C@@H]3O[C@@H]5CO[C@@H](C)O[C@H]5[C@H](O)[C@H]3O)[C@H]3COC(=O)[C@H]23)OCO4)cc(OC)c1O [Etoposide]; settings: max 10 µM
How it was run: as §1

AZD5363 = compound: C1CN(CCC1(C(=O)N[C@@H](CCO)C2=CC=C(C=C2)Cl)N)C3=NC=NC4=C3C=CN4 [AZD5363]; settings: max 10 µM
How it was run: as §1

AZD1390 = compound: CC(C)n1c(=O)n(C)c2cnc3cc(F)c(-c4ccc(OCCCN5CCCCC5)nc4)cc3c21 [AZD1390]; settings: max 0.3 µM
How it was run: as §1

AZD5153 = compound: COc1nnc2ccc(N3CCC(c4ccc(OCCN5CCN(C)C(=O)[C@H]5C)cc4)CC3)nn12 [AZD5153]; settings: max 1 µM
How it was run: as §1

AZD4320 = compound: CN(CC[C@H](CSC1=CC=CC=C1)NC2=C(C=C(C=C2)S(=O)(=O)NC(=O)C3=CC=C(C=C3)N4CCC(CC4)[C@H](C5=CC=CC=C5C6=CC=C(C=C6)Cl)O)S(=O)(=O)C(F)(F)F)CCO [AZD4320]; settings: max 1 µM
How it was run: as §1

Palbociclib = compound: CC(=O)c1c(C)c2cnc(Nc3ccc(N4CCNCC4)cn3)nc2n(C2CCCC2)c1=O [Palbociclib]; settings: max 10 µM
How it was run: as §1

AZD6738 = compound: C[C@@H]1COCCN1C2=NC(=NC(=C2)C3(CC3)[S@](=N)(=O)C)C4=C5C=CNC5=NC=C4 [AZD6738]; settings: max 10 µM
How it was run: as §1

SRA737 = compound: N#Cc1cnc(Nc2cc(NC[C@H]3CNCCO3)c(C(F)(F)F)cn2)cn1 [SRA737]; settings: max 10 µM
How it was run: as §1

SG3199 = compound: CC1=CN2[C@@H](C1)C=NC3=CC(=C(C=C3C2=O)OC)OCCCCCOC4=C(C=C5C(=C4)N=C[C@@H]6CC(=CN6C5=O)C)OC [SG3199]; settings: max 0.001 µM
How it was run: as §1

Olaparib = compound: O=C(c1cc(Cc2n[nH]c(=O)c3ccccc23)ccc1F)N1CCN(C(=O)C2CC2)CC1 [Olaparib]; settings: max 10 µM
How it was run: as §1

5-Fluorouracil = compound: O=c1[nH]cc(F)c(=O)[nH]1 [5-Fluorouracil]; settings: max 20 µM
How it was run: as §1

Lapatinib = compound: CS(=O)(=O)CCNCc1ccc(-c2ccc3ncnc(Nc4ccc(OCc5cccc(F)c5)c(Cl)c4)c3c2)o1 [Lapatinib]; settings: max 10 µM
How it was run: as §1

Gefitinib = compound: COc1cc2ncnc(Nc3ccc(F)c(Cl)c3)c2cc1OCCCN1CCOCC1 [Gefitinib]; settings: max 10 µM
How it was run: as §1

Selumetinib = compound: Cn1cnc2c(F)c(Nc3ccc(Br)cc3Cl)c(C(=O)NOCCO)cc21 [Selumetinib]; settings: max 10 µM
How it was run: as §1

AZD5991 = compound: Cc1c2c(nn1C)CSCc1cc(n(C)n1)CSc1cc(c3ccccc3c1)OCCCc1c(C(=O)O)n(C)c3c-2c(Cl)ccc13 [AZD5991]; settings: max 1 µM
How it was run: as §1

Doxorubicin = compound: COc1cccc2c1C(=O)c1c(O)c3c(c(O)c1C2=O)C[C@@](O)(C(=O)CO)C[C@@H]3O[C@H]1C[C@H](N)[C@H](O)[C@H](C)O1 [Doxorubicin]; settings: max 1 µM
How it was run: as §1

Paclitaxel = compound: CC(=O)O[C@H]1C(=O)[C@@]2(C)[C@H]([C@H](OC(=O)c3ccccc3)[C@]3(O)C[C@H](OC(=O)[C@H](O)[C@@H](NC(=O)c4ccccc4)c4ccccc4)C(C)=C1C3(C)C)[C@]1(OC(C)=O)CO[C@@H]1C[C@@H]2O [Paclitaxel]; settings: max 3 µM
How it was run: as §1

Crizotinib = compound: C[C@@H](Oc1cc(-c2cnn(C3CCNCC3)c2)cnc1N)c1c(Cl)ccc(F)c1Cl [Crizotinib]; settings: max 10 µM
How it was run: as §1

MK-2206 = compound: NC1(c2ccc(-c3nc4ccn5c(=O)[nH]nc5c4cc3-c3ccccc3)cc2)CCC1 [MK-2206]; settings: max 10 µM
How it was run: as §1

Dasatinib = compound: CC1=C(C(=CC=C1)Cl)NC(=O)C2=CN=C(S2)NC3=CC(=NC(=N3)C)N4CCN(CC4)CCO [Dasatinib]; settings: max 2 µM
How it was run: as §1

Carboplatin = compound: C1CC(C1)(C(=O)[O-])C(=O)[O-].N.N.[Pt+2] [Carboplatin]; settings: max 10 µM
How it was run: as §1

AZD7648 = compound: Cc1cc2ncnn2cc1Nc1ncc2c(n1)n(C1CCOCC1)c(=O)n2C [AZD7648]; settings: max 10 µM
How it was run: as §1

Taselisib = compound: Cc1nc(-c2cn3c(n2)-c2ccc(-c4cnn(C(C)(C)C(N)=O)c4)cc2OCC3)n(C(C)C)n1 [Taselisib]; settings: max 10 µM
How it was run: as §1

Prexasertib = compound: COc1cccc(OCCCN)c1-c1cc(Nc2cnc(C#N)cn2)n[nH]1 [Prexasertib]; settings: max 1 µM
How it was run: as §1

AZD1775 = compound: C=CCn1c(=O)c2cnc(Nc3ccc(N4CCN(C)CC4)cc3)nc2n1-c1cccc(C(C)(C)O)n1 [AZD1775]
How it was run: as §1

SN-38 = compound: CCc1c2c(nc3ccc(O)cc13)-c1cc3c(c(=O)n1C2)COC(=O)[C@]3(O)CC [SN-38]; settings: max 0.3 µM
How it was run: as §1

Alisertib = compound: COc1cc(Nc2ncc3c(n2)-c2ccc(Cl)cc2C(c2c(F)cccc2OC)=NC3)ccc1C(=O)O [Alisertib]; settings: max 10 µM
How it was run: as §1

Venetoclax = compound: CC1(C)CCC(CN2CCN(c3ccc(C(=O)NS(=O)(=O)c4ccc(NCC5CCOCC5)c([N+](=O)[O-])c4)c(Oc4cnc5[nH]ccc5c4)c3)CC2)=C(c2ccc(Cl)cc2)C1 [Venetoclax]; settings: max 1 µM
How it was run: as §1

AZD2811 = compound: CCN(CCO)CCCOc1ccc2c(Nc3cc(CC(=O)Nc4cccc(F)c4)[nH]n3)ncnc2c1 [AZD2811]; settings: max 1 µM
How it was run: as §1

[1] = compound: O=C(Nc1ccc2[nH]nc(-c3ccncc3)c2c1)[C@@H]1CCN(CC(=O)N2CCN(c3ccc(-c4ncccn4)cc3)CC2)C1; settings: max 5 µM
How it was run: as §1

AZD8186 = compound: C[C@@H](Nc1cc(F)cc(F)c1)c1cc(C(=O)N(C)C)cc2c(=O)cc(N3CCOCC3)oc12 [AZD8186]; settings: max 10 µM
How it was run: as §1

Trametinib = compound: CC(=O)Nc1cccc(-n2c(=O)n(C3CC3)c(=O)c3c(Nc4ccc(I)cc4F)n(C)c(=O)c(C)c32)c1 [Trametinib]; settings: max 1 µM
How it was run: as §1

Row | Cell Line | IC50, cell viability 72 h (AZD0156; max 3 µM) [µM] | IC50, cell viability 72 h (Savolitinib) [µM] | IC50, cell viability 72 h (Gemcitabine) [µM] | IC50, cell viability 72 h (Etoposide) [µM] | IC50, cell viability 72 h (AZD5363) [µM] | IC50, cell viability 72 h (AZD1390) [µM] | IC50, cell viability 72 h (AZD5153) [µM] | IC50, cell viability 72 h (AZD4320) [µM] | IC50, cell viability 72 h (Palbociclib) [µM] | IC50, cell viability 72 h (AZD6738) [µM] | IC50, cell viability 72 h (SRA737) [µM] | IC50, cell viability 72 h (SG3199) [µM] | IC50, cell viability 72 h (Olaparib) [µM] | IC50, cell viability 72 h (5-Fluorouracil) [µM] | IC50, cell viability 72 h (Lapatinib) [µM] | IC50, cell viability 72 h (Gefitinib) [µM] | IC50, cell viability 72 h (Selumetinib) [µM] | IC50, cell viability 72 h (AZD5991) [µM] | IC50, cell viability 72 h (Doxorubicin) [µM] | IC50, cell viability 72 h (Paclitaxel) [µM] | IC50, cell viability 72 h (Crizotinib) [µM] | IC50, cell viability 72 h (MK-2206) [µM] | IC50, cell viability 72 h (Dasatinib) [µM] | IC50, cell viability 72 h (Carboplatin) [µM] | IC50, cell viability 72 h (AZD7648) [µM] | IC50, cell viability 72 h (Taselisib) [µM] | IC50, cell viability 72 h (Prexasertib) [µM] | IC50, cell viability 72 h (AZD1775; max 3 µM) [µM] | IC50, cell viability 72 h (SN-38) [µM] | IC50, cell viability 72 h (Alisertib) [µM] | IC50, cell viability 72 h (Venetoclax) [µM] | IC50, cell viability 72 h (AZD2811) [µM] | IC50, cell viability 72 h [1] [µM] | IC50, cell viability 72 h (AZD8186) [µM] | IC50, cell viability 72 h (Trametinib) [µM] | IC50, cell viability 72 h (AZD0156; max 1 µM) [µM] | IC50, cell viability 72 h (AZD1775; max 1 µM) [µM]
1 | Hs-633T (Other Solid Carcinomas) | > 3 | > 1 | 0.0145 | 5.07 | > 10 | > 0.3 | 0.57 | > 1 | > 10 | 3.3 | > 10 | > 0.001 | > 10 | > 20 | > 10 | > 10 | > 10 | > 1 | 0.38 | 0.0304 | 7 | > 10 | 0.334 | > 10 | > 10 | 7.46 | 0.0814 | 0.472 | 0.0382 | 9.06 | > 1 | > 1 | 3.36 | > 10 | 0.656 |  | 
2 | MDA-MB-468 (Breast Carcinoma) | > 3 |  | 0.263 | > 10 | > 10 | > 0.3 | > 1 | 0.67 | > 10 | 6.88 | > 10 | > 0.001 | > 10 | > 20 | 9.24 |  | > 10 | > 1 | > 1 | 0.111 | > 10 | 9.17 | > 2 | > 10 | > 10 | > 10 | 0.618 | 1.79 | 0.04 | 1.52 | > 1 | > 1 | > 5 | 9.07 | 0.415 |  | 
3 | RH-18 (Rhabdomyosarcoma) |  |  |  |  |  |  |  |  |  | > 10 |  | > 0.001 | > 10 |  |  |  |  |  | 0.909 |  |  |  |  |  | > 10 |  | > 1 |  | > 0.3 |  |  | > 1 |  |  |  | > 1 | > 1
